The text below walks through data of ChEMBL document CHEMBL3046127, “Homo- and hetero-dimers of inactive organophosphorous group binding at dual sites of AChE” (Bioorg Med Chem Lett, 2011).

Assay [1] concerns Tetranychus cinnabarinus. In words: Insecticidal activity against Tetranychus cinnabarinus (carmine spider mite) assessed as insect mortality at 300 mg/mL. It counts as functional. More on the design: dose or concentration left out as unconfirmed.
The test system of assay [2] is Lipaphis erysimi. Briefly: Insecticidal activity against Lipaphis erysimi (mustard aphids) assessed as insect mortality at 300 mg/mL. It counts as functional. Details: dose or concentration left out as unconfirmed. The conditions noted are these: in Brassica.
Assay [3] deals with Acetylcholinesterase (Drosophila melanogaster, UniProt P07140). Briefly: Inhibition of acetylcholinesterase in Drosophila melanogaster brain by Ellman's method. A general note: In Ellman's method for cholinesterases, released thiocholine reacts with DTNB.
Assay [4] concerns the target Acetylcholinesterase (Musca domestica, UniProt Q7YWJ9). Briefly: Inhibition of acetylcholinesterase in Musca domestica (house fly) brain by Ellman's method.

Chain of Acetylcholinesterase (Musca domestica, UniProt Q7YWJ9) (Q7YWJ9 whole entry): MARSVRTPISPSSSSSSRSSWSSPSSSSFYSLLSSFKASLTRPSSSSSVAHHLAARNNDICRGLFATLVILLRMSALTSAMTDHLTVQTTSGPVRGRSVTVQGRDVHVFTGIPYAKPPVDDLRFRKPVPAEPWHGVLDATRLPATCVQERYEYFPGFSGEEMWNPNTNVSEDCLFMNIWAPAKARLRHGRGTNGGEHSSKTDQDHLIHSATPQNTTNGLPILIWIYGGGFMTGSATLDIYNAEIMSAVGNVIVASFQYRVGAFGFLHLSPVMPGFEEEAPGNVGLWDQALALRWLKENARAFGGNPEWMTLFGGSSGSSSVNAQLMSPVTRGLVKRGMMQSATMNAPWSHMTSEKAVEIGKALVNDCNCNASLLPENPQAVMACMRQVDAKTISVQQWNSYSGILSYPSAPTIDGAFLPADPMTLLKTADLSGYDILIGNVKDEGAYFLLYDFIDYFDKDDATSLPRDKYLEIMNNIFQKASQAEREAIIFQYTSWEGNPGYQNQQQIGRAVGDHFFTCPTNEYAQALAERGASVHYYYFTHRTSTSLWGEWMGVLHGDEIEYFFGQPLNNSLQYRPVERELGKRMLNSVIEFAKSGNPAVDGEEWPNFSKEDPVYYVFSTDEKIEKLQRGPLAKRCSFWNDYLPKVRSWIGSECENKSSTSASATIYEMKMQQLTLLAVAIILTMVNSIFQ
Chain of Acetylcholinesterase (Drosophila melanogaster, UniProt P07140) (P07140 whole entry): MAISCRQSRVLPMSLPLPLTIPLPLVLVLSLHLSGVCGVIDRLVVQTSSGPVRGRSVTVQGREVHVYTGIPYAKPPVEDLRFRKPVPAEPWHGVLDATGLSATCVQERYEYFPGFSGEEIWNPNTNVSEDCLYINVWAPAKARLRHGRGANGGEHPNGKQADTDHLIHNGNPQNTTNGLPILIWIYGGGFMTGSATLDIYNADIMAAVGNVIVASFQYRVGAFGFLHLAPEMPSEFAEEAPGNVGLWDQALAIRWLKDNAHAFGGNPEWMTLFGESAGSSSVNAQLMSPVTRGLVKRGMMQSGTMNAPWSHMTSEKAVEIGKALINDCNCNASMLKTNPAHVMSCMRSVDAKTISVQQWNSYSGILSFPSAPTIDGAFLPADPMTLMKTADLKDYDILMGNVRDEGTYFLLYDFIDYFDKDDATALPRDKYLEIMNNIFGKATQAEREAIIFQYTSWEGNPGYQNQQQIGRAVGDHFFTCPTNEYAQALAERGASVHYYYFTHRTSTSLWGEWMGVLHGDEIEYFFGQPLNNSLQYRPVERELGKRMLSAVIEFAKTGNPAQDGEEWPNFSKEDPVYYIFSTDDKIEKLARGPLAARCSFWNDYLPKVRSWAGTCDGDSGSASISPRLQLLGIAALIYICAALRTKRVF

In general, mortality refers to the percentage killed. One may read the IC50 as the concentration at which inhibition is half-maximal. Regarding `CCOP(=O)(OCC)SCCCCCCCCN1C(=O)c2ccccc2C1=O`, the mortality amounted to 85% in assay [1] and 62.5% in assay [2]. Also, the values for the IC50 in assay [3] and in assay [4] were 4.5 µM and 13.8 µM, respectively.
For `CCOP(=O)(OCC)SCCCCCCCCCN1C(=O)c2ccccc2C1=O`, in that order: 77.6%, 88.3%, 37.5 µM and 267 µM.
For `CCOP(=O)(OCC)SCCCCCCCCCCN1C(=O)c2ccccc2C1=O`, in that order: 92.2%, 92.8%, 113 µM and 80.9 µM.
`CCOP(=O)(OCC)SCCCSP(=O)(OCC)OCC`: the mortality in assay [1] is 98.4%; in assay [2], 90.8%. Moreover, the values for the IC50 in assay [3] and in assay [4] were 1.64 µM and 32.4 µM, respectively.
For `CCOP(=O)(OCC)SCCCCSP(=O)(OCC)OCC`, the mortality stood at 82% in assay [1] and 89.4% in assay [2]. The IC50 in assay [3] was 8.07 µM; in assay [4], 107 µM.
The like results for `CCOP(=O)(OCC)SCCCCCSP(=O)(OCC)OCC` were, in that order, 85.7%, 42.6%, 12.3 µM and 4600 µM.
The like results for `CCOP(=O)(OCC)SCCCCCCSP(=O)(OCC)OCC` were, in that order, 92.4%, 95.4%, 0.87 µM and 8.9 µM.
The like results for `CCOP(=O)(OCC)SCCCCCCCSP(=O)(OCC)OCC` were, in that order, 83.3%, 97.3%, 10.2 µM and 2100 µM.
As for `CCOP(=O)(OCC)SCCCCCCCCSP(=O)(OCC)OCC`, the mortality came out at 87.7% in assay [1] and 97.5% in assay [2]. Further, the IC50 in assay [3] was determined as 4.84 µM; in assay [4], 331 µM.
The like results for `CCOP(=O)(OCC)SCCCCCCCCCSP(=O)(OCC)OCC` were, in that order, 78.6%, 100%, 1.43 µM and 197 µM.
In the case of `CCOP(=O)(OCC)SCCCCCCCCCCSP(=O)(OCC)OCC`, the mortality was determined as 93.3% in assay [1] and 96.6% in assay [2]. In addition, the figures for the IC50 in assay [3] and in assay [4] were 1.76 µM and 224 µM, respectively.
The like results for `CCOP(=O)(OCC)SCCCN1C(=O)c2ccccc2C1=O` were, in that order, 92.9%, 97.8%, 8.29 µM and 155 µM.
The like results for `CCOP(=O)(OCC)SCCCCN1C(=O)c2ccccc2C1=O` were, in that order, 88.9%, 97.7%, 9.92 µM and 25.8 µM.
For `CCOP(=O)(OCC)SCCCCCN1C(=O)c2ccccc2C1=O`, in that order: 81.2%, 96.5%, 12.3 µM and 114 µM.
`CCOP(=O)(OCC)SCCCCCCN1C(=O)c2ccccc2C1=O`: the figures for the mortality in assay [1] and in assay [2] were 87.3% and 100%, respectively. The IC50 in assay [3] came to 3.81 µM; in assay [4], 9.42 µM.
As for `CCOP(=O)(OCC)SCCCCCCCN1C(=O)c2ccccc2C1=O`, the mortality in assay [1] was 89.3%; in assay [2], 88%. Moreover, the IC50 in assay [3] came out at 1.84 µM; in assay [4], 2.08 µM.
The like results for `CCOP(=S)(OCC)Oc1nc(Cl)c(Cl)cc1Cl` [CHLORPYRIFOS] were, in that order, 71.1%, 100%, 1.83 µM and 9.51 µM.
On to `CCOP(O)(=S)OCC` [O,O-DIETHYL S-HYDROGEN PHOSPHOROTHIOATE], for which the IC50 is over 40000 µM in assay [3] and over 25000 µM in assay [4].
